Results on eleven molecules are retold here after patent US5220059A, “Lipoxygenase-inhibiting compounds derived from non-steroidal antiinflammatory carboxylic acids” (Abbott Laboratories, priority 1990, dated 1993).

The target of one assay is T1, 5-lipoxygenase (Rattus norvegicus, UniProt P12527).
T1 construct: 20,000xg supernatant from homogenized RBL-1 cells; endogenous in cells; host or cells: RBL-1 cells (20,000xg supernatant of homogenate)
T1 sequence (P12527 1-673): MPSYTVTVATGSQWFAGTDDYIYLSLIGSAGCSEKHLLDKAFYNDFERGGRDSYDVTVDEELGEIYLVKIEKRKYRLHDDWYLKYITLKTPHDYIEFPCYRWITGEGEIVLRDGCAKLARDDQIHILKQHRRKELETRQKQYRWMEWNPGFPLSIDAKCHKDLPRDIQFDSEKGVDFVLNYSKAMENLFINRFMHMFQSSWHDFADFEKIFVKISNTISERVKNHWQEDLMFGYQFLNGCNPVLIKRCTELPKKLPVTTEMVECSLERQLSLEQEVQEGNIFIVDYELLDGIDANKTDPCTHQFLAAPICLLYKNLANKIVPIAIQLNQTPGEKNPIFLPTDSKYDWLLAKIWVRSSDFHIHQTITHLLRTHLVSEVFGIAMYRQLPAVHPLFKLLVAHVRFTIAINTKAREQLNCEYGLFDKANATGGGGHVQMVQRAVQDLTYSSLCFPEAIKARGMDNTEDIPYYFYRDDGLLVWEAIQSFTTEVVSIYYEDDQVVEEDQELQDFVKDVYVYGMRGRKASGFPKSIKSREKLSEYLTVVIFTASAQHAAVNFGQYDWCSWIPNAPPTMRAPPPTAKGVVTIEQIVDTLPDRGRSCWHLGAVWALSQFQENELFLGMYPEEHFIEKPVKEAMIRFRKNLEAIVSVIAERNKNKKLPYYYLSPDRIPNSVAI
In words: In vitro inhibition of 5-lipoxygenase (20,000xg supernatant from homogenized RBL-1 cells). The note with it: read-out: IC50 (concentrations producing 50% enzyme inhibition). The assay is classed as biochemical. The protocol:
The In vitro effect of the compounds of the present invention on 5-lipoxygenase activity was evaluated using the 20,000xg supernatant from homogenized RBL-1 cells in a manner similar to that described by Dyer and coworkers in Fed. Proc., Fed. Am. Soc. Exp. Biol. 43:[…] (1984). IC50 values (i.e., concentrations of the compounds producing 50% enzyme inhibition) were calculated by linear regression analysis of percentage inhibition versus log inhibitor concentration plots.

The subject of a further assay is leukotriene biosynthesis. The assay is described as follows: In vivo inhibition of leukotriene biosynthesis, rat peritoneal anaphylaxis model. The note with it: 200 μmol/kg PO (gavage) one hour prior to antigen challenge, peritoneal fluids collected 15 minutes after challenge. The protocol:
The in vivo inhibition of leukotriene biosynthesis by the compounds of the present invention was evaluated in the following manner. The effect of the compounds after oral administration was determined using a rat peritoneal anaphylaxis model in a manner similar to that described by Young and coworkers in Fed. Proc., Fed. Am. Soc. Exp. Biol. 44:1185 (1985). According to this model rats were injected intraperitoneally (IP) with rabbit antibody to bovine serum albumin (BSA) and three hours later injected IP with BSA to induce an antigen-antibody response. Rats were sacrificed 15 minutes after this challenge and the peritoneal fluids were collected and analyzed for leukotriene levels. Test compounds were administered by gavage (PO) one hour prior to the antigen challenge. Percent inhibition values were determined by comparing the treatment group to the mean of the control group.

As to `CC(C)Cc1ccc(C(C)N(O)C(N)=O)cc1` (stereo not drawn) [Example 1, N-hydroxy-N-[1-(4-(2'-methylpropyl)phenyl)ethyl]urea], the IC50 on 5-lipoxygenase was determined as 640 nM. In the case of `COc1ccc2cc(C(C)N(O)C(N)=O)ccc2c1` (stereo not drawn) [Example 2, N-hydroxy-N-1-(6-methoxynaphthalen-2-yl)ethyl urea], the IC50 at 5-lipoxygenase came out at 430 nM. Besides, the “In vivo Inhibition of Leukotriene Biosynthesis” value (from here on “In vivo Inhibition”) with leukotriene biosynthesis is on record as 66%. Turning to `CNC(=O)N(O)C(C)c1ccc(CC(C)C)cc1` (stereo not drawn) [Example 3, N'-methyl-N-hydroxy-N-1-(4-(2'-methylpropyl)phenyl)ethyl urea], the IC50 at 5-lipoxygenase turned out to be 700 nM. In addition, the “In vivo Inhibition” value with leukotriene biosynthesis turned out to be 39%. In the case of `CNC(=O)N(O)C(C)c1ccc2cc(OC)ccc2c1` (stereo not drawn) [Example 4, N'-methyl-N-hydroxy-N-1-(6-methoxynaphthalen-2-yl)ethyl urea], on 5-lipoxygenase, the IC50 amounted to 600 nM. For the molecule `COc1ccc2cc(C(C)N(O)C(C)=O)ccc2c1` (stereo not drawn) [Example 5, N-hydroxy-N-1-(6-methoxynaphthalen-2-yl)ethyl acetamide], on 5-lipoxygenase, the IC50 stood at 700 nM. Also, the “In vivo Inhibition” value in the assay with leukotriene biosynthesis is given as 62%. As to `COc1ccc2c(c1)c(CCN(O)C(N)=O)c(C)n2C(=O)c1ccc(Cl)cc1` [Example 16, N-hydroxy-N-[2-(N-(4-chlorobenzoyl)-5-methoxy-2-methyl-[1H]-indol-3-yl)ethyl] urea], the IC50 at 5-lipoxygenase came to 400 nM. The same measure, in the same setting: the result for `CC(C)Cc1ccc(C(C)CN(O)C(N)=O)cc1` (stereo not drawn) [Example 17, N-hydroxy-N-[2-(4-(2-methylpropyl)phenyl)propyl] urea] reads 200 nM; that for `CC(C)Cc1ccc(C(C)N(O)C(N)=S)cc1` (stereo not drawn) [Example 29, N-hydroxy-N-[1-(4-(2'-methylpropyl)phenyl)ethyl] thiourea], below 400 nM.

Regarding `CCOC(=O)N(O)C(C)c1ccc(CC(C)C)cc1` (stereo not drawn) [Example 30, N-hydroxy-N-[1-(4-(2'-methylpropyl)phenyl)ethyl] ethoxycarbamate], the IC50 on 5-lipoxygenase was below 400 nM. With `CCSC(=O)N(O)C(C)c1ccc(CC(C)C)cc1` (stereo not drawn) [Example 31, N-hydroxy-N-[1-(4-(2'-methylpropyl)phenyl)ethyl] thioethylcarbamate], the IC50 on 5-lipoxygenase is 200 nM. In the case of `CNC(=O)N(O)CCc1c(C)n(C(=O)c2ccc(Cl)cc2)c2ccc(OC)cc12` [Example 32, N-hydroxy-N-[2-(N-(4-chlorobenzoyl)-5-methoxy-2-methyl-[1H]-indol-3-yl)ethyl]-N'-methyl urea], at 5-lipoxygenase, the IC50 came out at 200 nM. The “In vivo Inhibition” value with leukotriene biosynthesis is on record as 42%.
